Source: article PMC9403976, “Elucidating the path to Plasmodium prolyl-tRNA synthetase inhibitors that overcome halofuginone resistance” (Nature Communications, 2022)
Where “and” joins values, the source holds several entries; their conditions need not be identical. Identical values can stand only once. Like-named read-outs stand apart in the source and are kept apart here.

What was measured:
[1] = system: P. falciparum Dd2-2D4; test: P. falciparum asexual blood stage (ABS) growth assay, SYBR Green, 72 h, wild-type parasites; type: cell-based, Plasmodium falciparum; settings: for ABS growth dose-response, normalized signal (Replicates 1-3) / parasite growth, replicate wells (Fig 1b): Dd2-2D4
[2] = system: P. falciparum Dd2-2D4 NCP26 selections S1-3; test: ABS growth assay on bulk populations and clones from NCP26 resistance selections S1-3; type: cell-based, Plasmodium falciparum; settings: for EC50: Plasmodium falciparum
[3] = system: P. falciparum Dd2-2D4; test: P. falciparum ABS short-term resistance susceptibility assay; type: cell-based, Plasmodium falciparum; settings: wild-type parasites under intermittent drug pressure
Procedure: Following recrudescence, sensitivity to NCP26 and halofuginone was assayed using the ABS growth assay.

[4] = biological target: T1, PfcProRS (Plasmodium falciparum, UniProt Q8I5R7); type: binding; settings: for dose-response signal (normalized), SI Fig 8: single replicates, listed as NCP26 (3)
T1 construct: made in house; host or cells: E. coli SoluBL-21
T1 sequence (Q8I5R7 249-746): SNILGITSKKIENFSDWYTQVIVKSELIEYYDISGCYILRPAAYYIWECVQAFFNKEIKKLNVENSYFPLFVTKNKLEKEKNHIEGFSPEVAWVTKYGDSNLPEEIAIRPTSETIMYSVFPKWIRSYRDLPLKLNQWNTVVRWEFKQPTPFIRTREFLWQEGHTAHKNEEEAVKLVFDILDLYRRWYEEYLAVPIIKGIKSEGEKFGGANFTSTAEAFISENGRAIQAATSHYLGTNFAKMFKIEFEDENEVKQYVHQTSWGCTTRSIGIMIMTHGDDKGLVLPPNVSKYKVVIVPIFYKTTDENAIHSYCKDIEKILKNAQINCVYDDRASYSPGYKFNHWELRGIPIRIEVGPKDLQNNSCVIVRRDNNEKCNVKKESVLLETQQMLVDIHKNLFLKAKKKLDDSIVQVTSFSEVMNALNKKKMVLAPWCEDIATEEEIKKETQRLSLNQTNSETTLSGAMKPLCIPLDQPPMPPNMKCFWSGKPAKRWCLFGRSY

Question: What does the source list for `O=C(NC1Cc2ccccc2C1)c1nccnc1NC(=O)N1CCCCC1` [NCP26]?
Answer: ABS growth dose-response, normalized signal (Replicates 1-3) ([1]; Log[inhibitor] (M) -4.699): 0; parasite growth, replicate wells (Fig 1b) ([1]; Log[inhibitor] (M) -4.699): 0.00E+00; ABS growth dose-response, normalized signal (Replicates 1-3) ([1]; Log[inhibitor] (M) -5.000): 0; parasite growth, replicate wells (Fig 1b) ([1]; Log[inhibitor] (M) -5.000): 0.00E+00; ABS growth dose-response, normalized signal (Replicates 1-3) ([1]; Log[inhibitor] (M) -5.301): 0; parasite growth, replicate wells (Fig 1b) ([1]; Log[inhibitor] (M) -5.301): 0.00E+00; ABS growth dose-response, normalized signal (Replicates 1-3) ([1]; Log[inhibitor] (M) -5.602): 0; parasite growth, replicate wells (Fig 1b) ([1]; Log[inhibitor] (M) -5.602): 0.00E+00; ABS growth dose-response, normalized signal (Replicates 1-3) ([1]; Log[inhibitor] (M) -5.903): 0; parasite growth, replicate wells (Fig 1b) ([1]; Log[inhibitor] (M) -5.903): 0.00E+00; ABS growth dose-response, normalized signal (Replicates 1-3) ([1]; Log[inhibitor] (M) -6.204): 0; parasite growth, replicate wells (Fig 1b) ([1]; Log[inhibitor] (M) -6.204): 0.00E+00; ABS growth dose-response, normalized signal (Replicates 1-3) ([1]; Log[inhibitor] (M) -6.505): 0; parasite growth, replicate wells (Fig 1b) ([1]; Log[inhibitor] (M) -6.505): 0.00E+00; parasite growth, replicate wells (Fig 1b) ([1]; Log[inhibitor] (M) -6.806, listed as NCP26 (3)): 6.00E+00 (2×) and 5.00E+00; parasite growth, replicate wells (Fig 1b) ([1]; Log[inhibitor] (M) -7.107, listed as NCP26 (3)): 3.30E+01 and 2.80E+01 and 3.00E+01; parasite growth, replicate wells (Fig 1b) ([1]; Log[inhibitor] (M) -7.408, listed as NCP26 (3)): 9.50E+01 and 9.40E+01 and 9.90E+01; parasite growth, replicate wells (Fig 1b) ([1]; Log[inhibitor] (M) -7.709, listed as NCP26 (3)): 1.09E+02 and 1.04E+02 and 1.02E+02; ABS growth dose-response, normalized signal (Replicates 1-3) ([1]; Log[inhibitor] (M) -8.010): 101; parasite growth, replicate wells (Fig 1b) ([1]; Log[inhibitor] (M) -8.010): 1.01E+02; EC50 ([1]; Plasmodium falciparum, DD2, SI Fig 16b, values on -log scale, read-out: ABS - Dd2-2D4 (converted)): 0.0675 µM; EC50 ([2]; DD2, cell line S1 - Clone A8, read-out: EC50 [nM] mean): 68.1 nM; EC50 ([2]; DD2, cell line S1 - bulk population, read-out: EC50 [nM] mean): 102 nM; EC50 ([2]; DD2, cell line S2 - Clone A3, read-out: EC50 [nM] mean): 1240 nM; EC50 ([2]; DD2, cell line S2 - Clone B9, read-out: EC50 [nM] mean): 2930 nM; EC50 ([2]; DD2, cell line S2 - Clone C5, read-out: EC50 [nM] mean): 1580 nM; EC50 ([2]; DD2, cell line S2 - bulk population, read-out: EC50 [nM] mean): 1340 nM; EC50 ([2]; DD2, cell line S3 - Clone B3, read-out: EC50 [nM] mean): 2810 nM; EC50 ([2]; DD2, cell line S3 - Clone B7, read-out: EC50 [nM] mean): 2450 nM; EC50 ([2]; DD2, cell line S3 - bulk population, read-out: EC50 [nM] mean): 2000 nM; EC50 ([2]; DD2, read-out: EC50 [nM] mean, cell line S3 - Clone B2): 5110 nM; parasite growth, dose-response point ([2]; S1 - Clone A8, Log[NCP26] (M) -6.505): 1; parasite growth, dose-response point ([2]; S1 - Clone A8, Log[NCP26] (M) -6.806): 9; parasite growth, dose-response point ([2]; S1 - Clone A8, Log[NCP26] (M) -7.107): 33 and 29; parasite growth, dose-response point ([2]; S1 - Clone A8, Log[NCP26] (M) -7.408): 93 and 97 and 101; parasite growth, dose-response point ([2]; S2 - Clone A3, Log[NCP26] (M) -6.505): 93 and 92 and 86; parasite growth, dose-response point ([2]; S2 - Clone A3, Log[NCP26] (M) -6.806): 96 and 98 and 93; parasite growth, dose-response point ([2]; S2 - Clone A3, Log[NCP26] (M) -7.107): 100 and 98; parasite growth, dose-response point ([2]; S2 - Clone A3, Log[NCP26] (M) -7.408): 99 and 101 and 100; parasite growth, dose-response point ([2]; S2 - Clone B9, Log[NCP26] (M) -6.505): 98 and 112 and 97; parasite growth, dose-response point ([2]; S2 - Clone B9, Log[NCP26] (M) -6.806): 107 and 93 and 96; parasite growth, dose-response point ([2]; S2 - Clone B9, Log[NCP26] (M) -7.107): 96 and 110 and 113; parasite growth, dose-response point ([2]; S2 - Clone B9, Log[NCP26] (M) -7.408): 107 and 94 and 102; parasite growth, dose-response point ([2]; S2 - Clone B9, Log[NCP26] (M) -7.709): 99 and 93 and 94; parasite growth, dose-response point ([2]; S2 - Clone C5, Log[NCP26] (M) -6.505): 95 and 102; parasite growth, dose-response point ([2]; S2 - Clone C5, Log[NCP26] (M) -6.806): 98 and 100 and 101; parasite growth, dose-response point ([2]; S2 - Clone C5, Log[NCP26] (M) -7.107): 101 and 97; parasite growth, dose-response point ([2]; S2 - Clone C5, Log[NCP26] (M) -7.408): 96 and 101 and 100; parasite growth, dose-response point ([2]; S2 - Clone C5, Log[NCP26] (M) -7.709): 102 and 105; parasite growth, dose-response point ([2]; S3 - Clone A6, Log[NCP26] (M) -6.505): 108 and 103 and 90; parasite growth, dose-response point ([2]; S3 - Clone A6, Log[NCP26] (M) -6.806): 101 and 97; parasite growth, dose-response point ([2]; S3 - Clone A6, Log[NCP26] (M) -7.107): 95 and 100 and 96; parasite growth, dose-response point ([2]; S3 - Clone A6, Log[NCP26] (M) -7.408): 112 and 100 and 105; parasite growth, dose-response point ([2]; S3 - Clone A8, Log[NCP26] (M) -6.505): 94 and 102 and 97; parasite growth, dose-response point ([2]; S3 - Clone A8, Log[NCP26] (M) -6.806): 101 and 99 and 104; parasite growth, dose-response point ([2]; S3 - Clone A8, Log[NCP26] (M) -7.107): 100 and 103 and 99; parasite growth, dose-response point ([2]; S3 - Clone A8, Log[NCP26] (M) -7.408): 104 (2×) and 98; parasite growth, dose-response point ([2]; S3 - Clone B2, Log[NCP26] (M) -6.505): 76 and 92 and 86; parasite growth, dose-response point ([2]; S3 - Clone B2, Log[NCP26] (M) -6.806): 88 and 90 and 99; parasite growth, dose-response point ([2]; S3 - Clone B2, Log[NCP26] (M) -7.107): 113 and 109 and 107; parasite growth, dose-response point ([2]; S3 - Clone B2, Log[NCP26] (M) -7.408): 108 and 109; parasite growth, dose-response point ([2]; S3 - Clone B3, Log[NCP26] (M) -6.505): 92 and 95; parasite growth, dose-response point ([2]; S3 - Clone B3, Log[NCP26] (M) -6.806): 92 and 96 and 98; parasite growth, dose-response point ([2]; S3 - Clone B3, Log[NCP26] (M) -7.107): 99 and 94; parasite growth, dose-response point ([2]; S3 - Clone B3, Log[NCP26] (M) -7.408): 105 and 101 and 104; parasite growth, dose-response point ([2]; S3 - Clone B7, Log[NCP26] (M) -6.505): 101 and 95 and 100; parasite growth, dose-response point ([2]; S3 - Clone B7, Log[NCP26] (M) -6.806): 99 and 96 and 101; parasite growth, dose-response point ([2]; S3 - Clone B7, Log[NCP26] (M) -7.107): 98 and 94 and 99; parasite growth, dose-response point ([2]; S3 - Clone B7, Log[NCP26] (M) -7.408): 105 and 98; induction of rapid resistance [3]: did not induce rapid resistance; binding mode with respect to substrates (ATP, proline) [4]: proline-uncompetitive; fold increased affinity in the presence of proline [4]: 52 fold; dose-response signal (normalized), SI Fig 8 ([4]; Log[inhibitor] (M) -6.301): -4.45E-02 and 1.59E-01 and 5.71E-02 and 4.55E-02 and 8.14E-02 and 4.48E-02; dose-response signal (normalized), SI Fig 8 ([4]; Log[inhibitor] (M) -6.602): 1.17E-01 and 1.10E-01 and 1.62E-01 and 1.06E-01 and 1.14E-01 and 3.45E-02; dose-response signal (normalized), SI Fig 8 ([4]; Log[inhibitor] (M) -6.904): -7.84E-03 and 4.23E-02 and 1.85E-01 and 6.33E-02 and -1.22E-02 and 1.04E-01; dose-response signal (normalized), SI Fig 8 ([4]; Log[inhibitor] (M) -7.205): 1.30E-01 and 1.69E-01 and 1.26E-02 and 6.32E-02 and 1.43E-01 and 5.72E-02; dose-response signal (normalized), SI Fig 8 ([4]; Log[inhibitor] (M) -7.506): 2.32E-01 and 1.89E-01 and 1.64E-01 and 2.04E-01 and 7.73E-02 and 1.02E-01; dose-response signal (normalized), SI Fig 8 ([4]; Log[inhibitor] (M) -7.796): 3.08E-01 and 3.64E-01 and 4.11E-01 and 4.02E-01 and 3.25E-01 and 3.10E-01; dose-response signal (normalized), SI Fig 8 ([4]; Log[inhibitor] (M) -8.097): 5.23E-01 and 5.87E-01 and 9.12E-01 and 7.05E-01 and 5.54E-01 and 7.03E-01; dose-response signal (normalized), SI Fig 8 ([4]; Log[inhibitor] (M) -8.407): 7.84E-01 and 7.32E-01 and 7.98E-01 and 9.93E-01 and 8.87E-01 and 8.26E-01; dose-response signal (normalized), SI Fig 8 ([4]; Log[inhibitor] (M) -8.708): 9.57E-01 and 1.08E+00 and 9.98E-01 and 8.58E-01 and 8.40E-01 and 9.70E-01; dose-response signal (normalized), SI Fig 8 ([4]; Log[inhibitor] (M) -9.018): 9.48E-01 and 9.31E-01 and 1.13E+00 and 1.15E+00 and 1.02E+00 and 9.66E-01; dose-response signal (normalized), SI Fig 8 ([4]; Log[inhibitor] (M) -9.319): 9.22E-01 and 1.00E+00 and 1.07E+00 and 1.03E+00 and 1.09E+00 and 9.57E-01; dose-response signal (normalized), SI Fig 8 ([4]; Log[inhibitor] (M) -9.620): 1.10E+00 and 1.04E+00 (2×) and 9.95E-01 and 1.13E+00 and 9.21E-01; dose-response signal (normalized), SI Fig 8 ([4]; Log[inhibitor] (M) -9.921): 9.45E-01 and 1.02E+00 and 1.05E+00 and 9.10E-01 and 9.27E-01 and 9.41E-01
